Test [1] deals with BRD4-BD1 (Homo sapiens (Human), UniProt O60885). As to the kind of experiment: BRD4 AlphaScreen Assay (Example A2), BRD4-BD1. The format is binding. To be noted: read-out: BRD4 BD-1 enzyme IC50. As for the experimental part: (§1) BRD4-BD1 and BRD4-BD2 assays were conducted in white 384-well polystyrene plate in a final volume of 40 μL for BD1 and 60 μL for BD2. Inhibitors were first serially diluted in DMSO and added to the plate wells before the addition of other reaction components. […] The assays were carried out at room temperature in the assay buffer (50 mM Tris-HCl, pH 7.5, 0.01% Tween-20, 0.01% BSA, 5 mM DTT), containing 50 nM Biotin-labeled tetra-acetylated histone H4 peptide (H4Ac4) and BRD4-BD1 or BRD4-BD2 protein at concentration less than 1 nM. […] After plate sealing, the plate was incubated in the dark at room temperature for 75 min. before reading on a PHERAstar FS plate reader (BMG Labtech). IC50 determination was performed by fitting the curve of percent control activity versus the log of the inhibitor concentration using the GraphPad Prism 5.0 software.

The target of test [2] is BRD4-BD2 (Homo sapiens (Human), UniProt O60885). As to the kind of experiment: BRD4 AlphaScreen Assay (Example A2), BRD4-BD2. The format is binding. To be noted: read-out: BRD4 BD-2 enzyme IC50. As for the experimental part: as §1
Setting [3] is: Assay A2, AlphaScreen, BRD4-BD1.
Where [4] appears, read: Assay A2, AlphaScreen, BRD4-BD2.

Counter-ions that a name gives are not always drawn. Like-named read-outs stand apart in the source and are kept apart here.

For the molecule `Cc1noc(C)c1-c1ccc2[nH]c(=O)n3c2c1OCC3c1cccnc1CN` (stereo not drawn) [Example 130, 4-[2-(Aminomethyl)pyridin-3-yl]-7-(3,5-dimethylisoxazol-4-yl)-4,5-dihydroimidazo[1,5,4-de][1,4]benzoxazin-2(1H)-one bis(trifluoroacetate)], the half-maximal inhibitory concentration (IC50) in test [1] (setting [3]) and in test [2] (setting [4]) was < 100 nM throughout.

As to `Cc1noc(CF)c1-c1ccc2[nH]c(=O)n3c2c1OCC3c1ccccn1` (stereo not drawn) [Example 125, 7-[5-(Fluoromethyl)-3-methylisoxazol-4-yl]-4-pyridin-2-yl-4,5-dihydroimidazo[1,5,4-de][1,4]benzoxazin-2(1H)-one trifluoroacetate], the IC50 in test [1] (setting [3]) was 1000 to 10000 nM; in test [2] (setting [4]) it was < 100 nM.

As to `Cc1noc(C)c1-c1ccc2nc(C3=CCN(C(=O)OC(C)(C)C)C3)n3c2c1OC[C@@H]3c1ccccn1` [Example 98, tert-Butyl 3-[(4S)-7-(3,5-dimethylisoxazol-4-yl)-4-pyridin-2-yl-4,5-dihydroimidazo[1,5,4-de][1,4]benzoxazin-2-yl]-2,5-dihydro-1H-pyrrole-1-carboxylate], the IC50 in test [1] (setting [3]) and in test [2] (setting [4]) was < 100 nM throughout.

Turning to `Cc1noc(C)c1-c1ccc2[nH]c(=O)n3c2c1OC(C)C3c1ccccn1` (stereo not drawn) [Example 75, 7-(3,5-dimethylisoxazol-4-yl)-5-methyl-4-pyridin-2-yl-4,5-dihydroimidazo[1,5,4-de][1,4]benzoxazin-2(1H)-one], the 50% inhibitory concentration (IC50) in test [1] (setting [3]) and in test [2] (setting [4]) was < 100 nM each time.

As to `Cc1n[nH]c(C)c1-c1cc(-c2c(C)noc2C)c2c3c1[nH]c(=O)n3C(c1ccccn1)CO2` (stereo not drawn) [Example 258, 7-(3,5-dimethylisoxazol-4-yl)-9-(3,5-dimethyl-1H-pyrazol-4-yl)-4-pyridin-2-yl-4,5-dihydroimidazo[1,5,4-de][1,4]benzoxazin-2(1H)-one], the IC50 in test [1] (setting [3]) lay within 1000 to 10000 nM; in test [2] (setting [4]) it was 100 to 1000 nM.

In the case of `COC(=O)c1ncccc1C1COc2c(-c3c(C)noc3C)ccc3[nH]c(=O)n1c23` (racemic) [Example 132, Methyl 3-[7-(3,5-dimethylisoxazol-4-yl)-2-oxo-1,2,4,5-tetrahydroimidazo[1,5,4-de][1,4]benzoxazin-4-yl]pyridine-2-carboxylate], the IC50 in test [1] (setting [3]) and in test [2] (setting [4]) was < 100 nM each time.

On to `CCC1(c2ccccn2)COc2c(-c3c(C)noc3C)ccc3[nH]c(=O)n1c23` (stereo not drawn) [Example 70, 7-(3,5-Dimethylisoxazol-4-yl)-4-ethyl-4-pyridin-2-yl-4,5-dihydroimidazo[1,5,4-de][1,4]benzoxazin-2(1H)-one 2,2,2-trifluoroacetate], for which the IC50 in test [1] and in test [2] was < 100 nM throughout.

For `Cc1noc(C)c1-c1c(Cl)c(Cl)c2[nH]c(=O)n3c2c1OC[C@@H]3c1ccccn1` [Example 252, (4S)-8,9-dichloro-7-(3,5-dimethylisoxazol-4-yl)-4-pyridin-2-yl-4,5-dihydroimidazo[1,5,4-de][1,4]benzoxazin-2(1H)-one bistrifluoroacetate], the IC50 in test [1] (setting [3]) and in test [2] (setting [4]) was 100 to 1000 nM throughout.

On to `Cc1noc(C)c1-c1ccc2[nH]c(=O)n3c2c1OCC3(C)c1ccccn1` (stereo not drawn) [Example 69, 7-(3,5-Dimethylisoxazol-4-yl)-4-methyl-4-pyridin-2-yl-4,5-dihydroimidazo[1,5,4-de][1,4]benzoxazin-2(1H)-one], for which the IC50 in test [1] (setting [3]) and in test [2] (setting [4]) was < 100 nM in each case.

Turning to `Cc1noc(C)c1-c1ccc2nc(C(=O)N3CCOCC3)n3c2c1OC[C@@H]3c1ccccn1` [Example 94, (4S)-7-(3,5-Dimethylisoxazol-4-yl)-2-(morpholin-4-ylcarbonyl)-4-pyridin-2-yl-4,5-dihydroimidazo[1,5,4-de][1,4]benzoxazine], the concentration for half-maximal inhibition (IC50) in test [1] (setting [3]) and in test [2] (setting [4]) was < 100 nM in each case.

As to `Cc1noc(C)c1-c1ccc2nc(C(N)=O)n3c2c1OC[C@@H]3c1ccccn1` [Example 96, (4S)-7-(3,5-Dimethylisoxazol-4-yl)-4-pyridin-2-yl-4,5-dihydroimidazo[1,5,4-de][1,4]benzoxazine-2-carboxamide], the IC50 in test [1] (setting [3]) and in test [2] (setting [4]) was < 100 nM in each case.

`Cc1noc(C)c1-c1ccc2nc(C3=CCN(C(=O)OC(C)(C)C)CC3)n3c2c1OC[C@@H]3c1ccccn1` [Example 97, tert-Butyl 4-[(4S)-7-(3,5-dimethylisoxazol-4-yl)-4-pyridin-2-yl-4,5-dihydroimidazo[1,5,4-de][1,4]benzoxazin-2-yl]-3,6-dihydropyridine-1(2H)-carboxylate]: the IC50 in test [1] (setting [3]) and in test [2] (setting [4]) was < 100 nM throughout.

Consider `CC(=O)N1CCCN(c2nc3ccc(-c4c(C)noc4C)c4c3n2[C@@H](c2ccccn2)CO4)CC1` [Example 148, (4S)-2-(4-Acetyl-1,4-diazepan-1-yl)-7-(3,5-dimethylisoxazol-4-yl)-4-pyridin-2-yl-4,5-dihydroimidazo[1,5,4-de][1,4]benzoxazine], for which the IC50 in test [1] (setting [3]) and in test [2] (setting [4]) was < 100 nM throughout.

In the case of `Cc1noc(C)c1-c1cc(C2=CCN(C(=O)OC(C)(C)C)CC2)c2[nH]c(=O)n3c2c1OC[C@@H]3c1ccccn1` [Example 83, tert-butyl 4-[(4S)-7-(3,5-dimethylisoxazol-4-yl)-2-oxo-4-pyridin-2-yl-1,2,4,5-tetrahydroimidazo[1,5,4-de][1,4]benzoxazin-9-yl]-3,6-dihydropyridine-1(2H)-carboxylate 2,2,2-trifluoroacetate], the IC50 in test [1] (setting [3]) and in test [2] (setting [4]) was < 100 nM each time.

Regarding `CNC(=O)C1Oc2c(-c3c(C)noc3C)ccc3[nH]c(=O)n(c23)C1c1ccccn1` (stereo not drawn) [Example 76, 7-(3,5-dimethylisoxazol-4-yl)-N-methyl-2-oxo-4-pyridin-2-yl-1,2,4,5-tetrahydroimidazo[1,5,4-de][1,4]benzoxazine-5-carboxamide 2,2,2-trifluoroacetate], the IC50 in test [1] (setting [3]) and in test [2] (setting [4]) was 100 to 1000 nM each time.

Turning to `CC(=O)N1CCC(c2nc3ccc(-c4c(C)noc4C)c4c3n2[C@@H](c2ccccn2)CO4)C1` (single isomer, unassigned; diastereomer 2) [Example 113B], the IC50 in test [1] (setting [3]) and in test [2] (setting [4]) was < 100 nM each time.

As for `Cc1noc(C)c1-c1cc(-c2ccccc2)c2[nH]c(=O)n3c2c1OCC3c1ccccc1` (stereo not drawn) [Example 43, 7-(3,5-Dimethylisoxazol-4-yl)-4,9-diphenyl-4,5-dihydroimidazo[1,5,4-de][1,4]benzoxazin-2(1H)-one], the IC50 in test [1] (setting [3]) and in test [2] (setting [4]) was < 100 nM in each case.

Turning to `Cc1noc(C)c1-c1cc(C)c2[nH]c(=O)n3c2c1OCC3c1ccccc1` (stereo not drawn) [Example 46, 7-(3,5-Dimethylisoxazol-4-yl)-9-methyl-4-phenyl-4,5-dihydroimidazo[1,5,4-de][1,4]benzoxazin-2(1H)-one], the IC50 in test [1] (setting [3]) and in test [2] (setting [4]) was < 100 nM in each case.

As to `Cc1noc(C)c1-c1cc(CNc2ccccc2)c2[nH]c(=O)n3c2c1OCC3c1ccccn1` (stereo not drawn) [Example 262, 9-(anilinomethyl)-7-(3,5-dimethylisoxazol-4-yl)-4-pyridin-2-yl-4,5-dihydroimidazo[1,5,4-de][1,4]benzoxazin-2(1H)-one], the IC50 is 1000 to 10000 nM in test [1] (setting [3]) and < 100 nM in test [2] (setting [4]).

On to `Cc1noc(C)c1-c1ccc2nc(N3CCCN(S(C)(=O)=O)CC3)n3c2c1OC[C@@H]3c1ccccn1` [Example 149, (4S)-7-(3,5-Dimethylisoxazol-4-yl)-2-[4-(methylsulfonyl)-1,4-diazepan-1-yl]-4-pyridin-2-yl-4,5-dihydroimidazo[1,5,4-de][1,4]benzoxazine], for which the IC50 in test [1] (setting [3]) and in test [2] (setting [4]) was < 100 nM each time.

In the case of `Cc1noc(C)c1-c1cc(CNS(C)(=O)=O)c2[nH]c(=O)n3c2c1OC[C@@H]3c1ccccn1` [Example 141, N-{[(4S)-7-(3,5-Dimethylisoxazol-4-yl)-2-oxo-4-pyridin-2-yl-1,2,4,5-tetrahydroimidazo[1,5,4-de][1,4]benzoxazin-9-yl]methyl}methanesulfonamide], the concentration for half-maximal inhibition (IC50) in test [1] (setting [3]) and in test [2] (setting [4]) was < 100 nM in each case.

Take `Cc1noc(C)c1-c1ccc2nc(N3CC[C@@H](NC(=O)N4CCOCC4)C3)n3c2c1OC[C@@H]3c1ccccn1` [Example 153, N-{(3R)-1-[(4S)-7-(3,5-Dimethylisoxazol-4-yl)-4-pyridin-2-yl-4,5-dihydroimidazo[1,5,4-de][1,4]benzoxazin-2-yl]pyrrolidin-3-yl}morpholine-4-carboxamide]: the IC50 in test [1] (setting [3]) and in test [2] (setting [4]) was < 100 nM in each case.

`Cc1noc(C)c1-c1ccc2nc(C3CCN(C(=O)OC(C)(C)C)CC3)n3c2c1OC[C@@H]3c1ccccn1` [Example 100, tert-Butyl 4-[(4S)-7-(3,5-dimethylisoxazol-4-yl)-4-pyridin-2-yl-4,5-dihydroimidazo[1,5,4-de][1,4]benzoxazin-2-yl]piperidine-1-carboxylate]: the IC50 in test [1] (setting [3]) and in test [2] (setting [4]) was < 100 nM in each case.

`Cc1noc(C)c1-c1cc(F)c2nc(N(C)C)n3c2c1OCC3c1cccnc1` (stereo not drawn) [Example 156, 7-(3,5-Dimethylisoxazol-4-yl)-9-fluoro-N,N-dimethyl-4-pyridin-3-yl-4,5-dihydroimidazo[1,5,4-de][1,4]benzoxazin-2-amine]: the IC50 is 100 to 1000 nM in test [1] (setting [3]) and < 100 nM in test [2] (setting [4]).

For the origin of these results see patent US9624241B2 (Incyte Corporation, priority 2013, dated 2017).
